“And” between values parts separate entries of the source, which are not always exact repeats. Identical values can stand only once. ± gives the expanded uncertainty stated by the source.
Assay: activity coefficient (dimensionless); of the first substance listed, at infinite dilution; xn = mol fraction of the nth substance listed
Details: Liquid, Chromatography, x1 = 0

## CCCCCC=O [hexanal] + CCCCCC[n+]1ccn(C)c1.O=S(=O)([N-]S(=O)(=O)C(F)(F)F)C(F)(F)F
333.15 K
  activity coefficient: 1.2 ± 0.077
343.55 K
  activity coefficient: 1.21 ± 0.078
354.05 K
  activity coefficient: 1.23 ± 0.079
364.45 K
  activity coefficient: 1.24 ± 0.08
374.95 K
  activity coefficient: 1.26 ± 0.081

## CCCCCC [hexane] + CCCCCC[n+]1ccn(C)c1.O=S(=O)([N-]S(=O)(=O)C(F)(F)F)C(F)(F)F
301.85 K
  activity coefficient: 8.03 ± 0.55
312.25 K
  activity coefficient: 7.65 ± 0.52
322.85 K
  activity coefficient: 7.41 ± 0.51
333.25 K
  activity coefficient: 6.94 ± 0.47
343.75 K
  activity coefficient: 6.74 ± 0.46

## CO [methanol] + CCCCCC[n+]1ccn(C)c1.O=S(=O)([N-]S(=O)(=O)C(F)(F)F)C(F)(F)F
301.95 K
  activity coefficient: 1.46 ± 0.1
312.45 K
  activity coefficient: 1.34 ± 0.09
323.05 K
  activity coefficient: 1.22 ± 0.08
333.45 K
  activity coefficient: 1.1 ± 0.07
343.95 K
  activity coefficient: 0.99 ± 0.06
354.45 K
  activity coefficient: 0.93 ± 0.06

## CCCC(=O)OC [methyl butanoate] + CCCCCC[n+]1ccn(C)c1.O=S(=O)([N-]S(=O)(=O)C(F)(F)F)C(F)(F)F
322.75 K
  activity coefficient: 0.868 ± 0.055
333.25 K
  activity coefficient: 0.874 ± 0.056
343.65 K
  activity coefficient: 0.877 ± 0.056
354.15 K
  activity coefficient: 0.884 ± 0.056

## CCCCCCC(=O)OC [methyl heptanoate] + CCCCCC[n+]1ccn(C)c1.O=S(=O)([N-]S(=O)(=O)C(F)(F)F)C(F)(F)F
354.15 K
  activity coefficient: 1.6 ± 0.11
364.65 K
  activity coefficient: 1.52 ± 0.1
375.15 K
  activity coefficient: 1.44 ± 0.09
385.65 K
  activity coefficient: 1.38 ± 0.09

## CCCCCC(=O)OC [methyl hexanoate] + CCCCCC[n+]1ccn(C)c1.O=S(=O)([N-]S(=O)(=O)C(F)(F)F)C(F)(F)F
343.65 K
  activity coefficient: 1.39 ± 0.09
354.15 K
  activity coefficient: 1.35 ± 0.09
364.65 K
  activity coefficient: 1.29 ± 0.08
375.15 K
  activity coefficient: 1.25 ± 0.08
385.65 K
  activity coefficient: 1.2 ± 0.08

## CCCCC(=O)OC [methyl pentanoate] + CCCCCC[n+]1ccn(C)c1.O=S(=O)([N-]S(=O)(=O)C(F)(F)F)C(F)(F)F
322.75 K
  activity coefficient: 1.04 ± 0.07
333.25 K
  activity coefficient: 1.03 ± 0.06
343.65 K
  activity coefficient: 1.01 ± 0.06
354.15 K
  activity coefficient: 0.99 ± 0.06

## CCC(=O)OC [methyl propanoate] + CCCCCC[n+]1ccn(C)c1.O=S(=O)([N-]S(=O)(=O)C(F)(F)F)C(F)(F)F
322.75 K
  activity coefficient: 0.681 ± 0.046
333.25 K
  activity coefficient: 0.683 ± 0.046
343.65 K
  activity coefficient: 0.685 ± 0.046
354.15 K
  activity coefficient: 0.688 ± 0.046

## CCCCCCCCC [nonane] + CCCCCC[n+]1ccn(C)c1.O=S(=O)([N-]S(=O)(=O)C(F)(F)F)C(F)(F)F
307.05 K
  activity coefficient: 21.4 ± 1.5
312.35 K
  activity coefficient: 20.5 and 20.3
322.85 K
  activity coefficient: 18.9 and 18.6

## C=CCCCCCC [oct-1-ene] + CCCCCC[n+]1ccn(C)c1.O=S(=O)([N-]S(=O)(=O)C(F)(F)F)C(F)(F)F
301.95 K
  activity coefficient: 8.83 ± 0.6
312.45 K
  activity coefficient: 8.43 ± 0.58
322.95 K
  activity coefficient: 8.08 ± 0.55
333.45 K
  activity coefficient: 7.66 ± 0.52
343.95 K
  activity coefficient: 7.37 ± 0.5
354.35 K
  activity coefficient: 7.16 ± 0.49

## CCCCCCCC=O [octanal] + CCCCCC[n+]1ccn(C)c1.O=S(=O)([N-]S(=O)(=O)C(F)(F)F)C(F)(F)F
354.05 K
  activity coefficient: 1.9 ± 0.13
364.45 K
  activity coefficient: 1.92 ± 0.13
374.95 K
  activity coefficient: 1.94 ± 0.13
385.45 K
  activity coefficient: 1.96 ± 0.13
395.95 K
  activity coefficient: 1.97 ± 0.13

## CCCCCCCC [octane] + CCCCCC[n+]1ccn(C)c1.O=S(=O)([N-]S(=O)(=O)C(F)(F)F)C(F)(F)F
300.95 K
  activity coefficient: 15.2 ± 1
312.25 K
  activity coefficient: 14.3 ± 0.98
322.85 K
  activity coefficient: 13.2 ± 0.9
333.25 K
  activity coefficient: 12.2 ± 0.84
343.75 K
  activity coefficient: 11.5 ± 0.78

## CCCCCO [pentan-1-ol] + CCCCCC[n+]1ccn(C)c1.O=S(=O)([N-]S(=O)(=O)C(F)(F)F)C(F)(F)F
333.25 K
  activity coefficient: 2.18 ± 0.15
343.75 K
  activity coefficient: 2 ± 0.14
354.05 K
  activity coefficient: 1.8 ± 0.12
364.55 K
  activity coefficient: 1.63 ± 0.11
374.95 K
  activity coefficient: 1.51 ± 0.1

## CCCCC=O [pentanal] + CCCCCC[n+]1ccn(C)c1.O=S(=O)([N-]S(=O)(=O)C(F)(F)F)C(F)(F)F
301.75 K
  activity coefficient: 1.11 ± 0.07
312.25 K
  activity coefficient: 1.1 ± 0.07
322.85 K
  activity coefficient: 1.08 ± 0.068
333.35 K
  activity coefficient: 1.06 ± 0.067
343.55 K
  activity coefficient: 1.05 ± 0.066
354.05 K
  activity coefficient: 1.03 ± 0.065
364.45 K
  activity coefficient: 1.01 ± 0.063
374.95 K
  activity coefficient: 0.99 ± 0.062

## CCCCC [pentane] + CCCCCC[n+]1ccn(C)c1.O=S(=O)([N-]S(=O)(=O)C(F)(F)F)C(F)(F)F
301.95 K
  activity coefficient: 6.26 ± 0.43
312.45 K
  activity coefficient: 5.44 ± 0.37
323.05 K
  activity coefficient: 5.33 ± 0.36
333.45 K
  activity coefficient: 4.72 ± 0.32
343.95 K
  activity coefficient: 4.09 ± 0.28

## CCCCCc1ccccc1 [pentylbenzene] + CCCCCC[n+]1ccn(C)c1.O=S(=O)([N-]S(=O)(=O)C(F)(F)F)C(F)(F)F
364.65 K
  activity coefficient: 3.38 ± 0.23
375.15 K
  activity coefficient: 3.37 ± 0.23
385.65 K
  activity coefficient: 3.37 ± 0.23

## CCCO [propan-1-ol] + CCCCCC[n+]1ccn(C)c1.O=S(=O)([N-]S(=O)(=O)C(F)(F)F)C(F)(F)F
312.45 K
  activity coefficient: 2.15 ± 0.15
323.05 K
  activity coefficient: 1.86 ± 0.13
333.45 K
  activity coefficient: 1.63 ± 0.11
343.95 K
  activity coefficient: 1.43 ± 0.09
354.45 K
  activity coefficient: 1.27 ± 0.08

## CC(C)O [propan-2-ol] + CCCCCC[n+]1ccn(C)c1.O=S(=O)([N-]S(=O)(=O)C(F)(F)F)C(F)(F)F
301.65 K
  activity coefficient: 1.93 ± 0.13
312.25 K
  activity coefficient: 1.68 ± 0.11
322.75 K
  activity coefficient: 1.49 ± 0.1
333.25 K
  activity coefficient: 1.33 ± 0.09
343.75 K
  activity coefficient: 1.21 ± 0.08
354.05 K
  activity coefficient: 1.09 ± 0.07

## CCC=O [propanal] + CCCCCC[n+]1ccn(C)c1.O=S(=O)([N-]S(=O)(=O)C(F)(F)F)C(F)(F)F
301.75 K
  activity coefficient: 0.453 ± 0.036
312.25 K
  activity coefficient: 0.45 ± 0.036
322.85 K
  activity coefficient: 0.444 ± 0.036
333.35 K
  activity coefficient: 0.439 ± 0.035

## CCCc1ccccc1 [propylbenzene] + CCCCCC[n+]1ccn(C)c1.O=S(=O)([N-]S(=O)(=O)C(F)(F)F)C(F)(F)F
333.35 K
  activity coefficient: 2.1 ± 0.14
343.85 K
  activity coefficient: 2.08 ± 0.14
354.25 K
  activity coefficient: 2.03 ± 0.14
364.65 K
  activity coefficient: 2.02 ± 0.14
375.15 K
  activity coefficient: 2 ± 0.14
385.65 K
  activity coefficient: 1.96 ± 0.13

## Cc1ccccc1 [toluene] + CCCCCC[n+]1ccn(C)c1.O=S(=O)([N-]S(=O)(=O)C(F)(F)F)C(F)(F)F
307.05 K
  activity coefficient: 1.04 ± 0.07
312.35 K
  activity coefficient: 1.04 ± 0.07
322.85 K
  activity coefficient: 1.06 ± 0.07
333.35 K
  activity coefficient: 1.06 ± 0.07
343.85 K
  activity coefficient: 1.08 ± 0.07

## ClC(Cl)Cl [trichloromethane] + CCCCCC[n+]1ccn(C)c1.O=S(=O)([N-]S(=O)(=O)C(F)(F)F)C(F)(F)F
301.75 K
  activity coefficient: 0.67 ± 0.045
301.85 K
  activity coefficient: 0.67 ± 0.045
312.25 K
  activity coefficient: 0.68 ± 0.046
312.45 K
  activity coefficient: 0.68 ± 0.046
322.85 K
  activity coefficient: 0.69 ± 0.046
323.05 K
  activity coefficient: 0.7 ± 0.047
333.45 K
  activity coefficient: 0.71 ± 0.047
343.95 K
  activity coefficient: 0.72 ± 0.048

## CCCCCCCCCCC [undecane] + CCCCCC[n+]1ccn(C)c1.O=S(=O)([N-]S(=O)(=O)C(F)(F)F)C(F)(F)F
312.35 K
  activity coefficient: 37.3 ± 2.5
322.85 K
  activity coefficient: 34.1 ± 2.3
333.35 K
  activity coefficient: 30 ± 2
343.75 K
  activity coefficient: 27.7 ± 1.9
354.25 K
  activity coefficient: 26 ± 1.8

— the NIST ThermoML archive (doi:10.1021/je0503554)
